In ChEMBL document CHEMBL1149819, “Synthesis and in vivo anti-mutagenic activity of novel melatonin derivatives” (2008):

Tests used:
Conditions in all cases: route intragastric
Mus musculus [1] = experiment: Antimutagenic activity against cyclophosphamide-induced mutagenicity in mouse kidney assessed as protein level per gram of tissue at 14.16 mg/kg administered intragastrically for 1 week; format: functional
Mus musculus [2] = experiment: Antimutagenic activity in Albino mouse testes assessed as RNA level per gram of tissue at 14.16 mg/kg administered intragastrically for 1 week; format: functional, Testis
Mus musculus [3] = experiment: Antimutagenic activity against cyclophosphamide-induced mutagenicity in mouse brain assessed as protein level per gram of tissue at 14.16 mg/kg administered intragastrically for 1 week; format: functional
Mus musculus [4] = experiment: Antimutagenic activity in mouse brain assessed as protein level per gram of tissue at 14.16 mg/kg administered intragastrically for 1 week; format: functional
Mus musculus [5] = experiment: Antimutagenic activity in Albino mouse brain assessed as DNA level per gram of tissue at 14.16 mg/kg administered intragastrically for 1 week; format: functional
Mus musculus [6] = experiment: Antimutagenic activity against cyclophosphamide-induced mutagenicity in Albino mouse liver assessed as DNA level per gram of tissue at 14.16 mg/kg administered intragastrically for 1 week; format: functional
Mus musculus [7] = experiment: Antimutagenic activity against cyclophosphamide-induced mutagenicity in mouse brain assessed as cholinesterase activity per microgram of tissue at 14.16 mg/kg administered intragastrically for 1 week; format: functional
Mus musculus [8] = experiment: Antimutagenic activity against cyclophosphamide-induced mutagenicity in Albino mouse kidney assessed as RNA level per gram of tissue at 14.16 mg/kg administered intragastrically for 1 week; format: functional
Mus musculus [9] = experiment: Antimutagenic activity in mouse brain assessed as peroxidase activity per microgram of tissue at 14.16 mg/kg administered intragastrically for 1 week; format: functional
Mus musculus [10] = experiment: Antimutagenic activity in Albino mouse liver assessed as RNA level per gram of tissue at 14.16 mg/kg administered intragastrically for 1 week; format: functional
Mus musculus [11] = experiment: Inhibition of cyclophosphamide-induced increase in micronuclei/polychromatic erythrocytes count in mouse at 18.38 mg/kg administered intragastrically for 1 week by micronuclei assay; format: functional; parameters: scale not given: the % may be the effect or the level left
Mus musculus [12] = experiment: Antimutagenic activity against cyclophosphamide-induced mutagenicity in mouse brain assessed as peroxidase activity per microgram of tissue at 14.16 mg/kg administered intragastrically for 1 week; format: functional
Mus musculus [13] = experiment: Antimutagenic activity in Albino mouse kidney assessed as DNA level per gram of tissue at 14.16 mg/kg administered intragastrically for 1 week; format: functional
Mus musculus [14] = experiment: Antimutagenic activity in mouse liver assessed as protein level per gram of tissue at 14.16 mg/kg administered intragastrically for 1 week; format: functional
Mus musculus [15] = experiment: Antimutagenic activity against cyclophosphamide-induced mutagenicity in Albino mouse brain assessed as RNA level per gram of tissue at 14.16 mg/kg administered intragastrically for 1 week; format: functional
Mus musculus [16] = experiment: Antimutagenic activity in mouse brain assessed as cholinesterase activity per microgram of tissue at 14.16 mg/kg administered intragastrically for 1 week; format: functional
Mus musculus [17] = experiment: Antimutagenic activity against cyclophosphamide-induced mutagenicity in Albino mouse brain assessed as DNA level per gram of tissue at 14.16 mg/kg administered intragastrically for 1 week; format: functional
Mus musculus [18] = experiment: Antimutagenic activity in Albino mouse kidney assessed as RNA level per gram of tissue at 14.16 mg/kg administered intragastrically for 1 week; format: functional
Mus musculus [19] = experiment: Antimutagenic activity in Albino mouse testes assessed as DNA level per gram of tissue at 14.16 mg/kg administered intragastrically for 1 week; format: functional, Testis
Mus musculus [20] = experiment: Antimutagenic activity in Albino mouse liver assessed as DNA level per gram of tissue at 14.16 mg/kg administered intragastrically for 1 week; format: functional
Mus musculus [21] = experiment: Antimutagenic activity against cyclophosphamide-induced mutagenicity in Albino mouse kidney assessed as DNA level per gram of tissue at 14.16 mg/kg administered intragastrically for 1 week; format: functional
Mus musculus [22] = experiment: Antimutagenic activity against cyclophosphamide-induced mutagenicity in Albino mouse liver assessed as RNA level per gram of tissue at 14.16 mg/kg administered intragastrically for 1 week; format: functional
Mus musculus [23] = experiment: Antimutagenic activity against cyclophosphamide-induced mutagenicity in Albino mouse testes assessed as RNA level per gram of tissue at 14.16 mg/kg administered intragastrically for 1 week; format: functional, Testis
Mus musculus [24] = experiment: Antimutagenic activity against cyclophosphamide-induced mutagenicity in mouse testes assessed as protein level per gram of tissue at 14.16 mg/kg administered intragastrically for 1 week; format: functional, Testis
Mus musculus [25] = experiment: Antimutagenic activity against cyclophosphamide-induced mutagenicity in Albino mouse testes assessed as DNA level per gram of tissue at 14.16 mg/kg administered intragastrically for 1 week; format: functional, Testis
Mus musculus [26] = experiment: Antimutagenic activity in mouse kidney assessed as protein level per gram of tissue at 14.16 mg/kg administered intragastrically for 1 week; format: functional
Mus musculus [27] = experiment: Antimutagenic activity in Albino mouse brain assessed as RNA level per gram of tissue at 14.16 mg/kg administered intragastrically for 1 week; format: functional
Mus musculus [28] = experiment: Antimutagenic activity against cyclophosphamide-induced mutagenicity in Albino mouse testes assessed as DNA level per gram of tissue at 10 mg/kg administered intragastrically for 1 week; format: functional, Testis
Mus musculus [29] = experiment: Antimutagenic activity against cyclophosphamide-induced mutagenicity in mouse liver assessed as protein level per gram of tissue at 10 mg/kg administered intragastrically for 1 week; format: functional
Mus musculus [30] = experiment: Antimutagenic activity against cyclophosphamide-induced mutagenicity in Albino mouse liver assessed as RNA level per gram of tissue at 10 mg/kg administered intragastrically for 1 week; format: functional
Mus musculus [31] = experiment: Inhibition of cyclophosphamide-induced increase in micronuclei/polychromatic erythrocytes count in mouse at 10 mg/kg administered intragastrically for 1 week by micronuclei assay; format: functional; parameters: scale not given: the % may be the effect or the level left
Mus musculus [32] = experiment: Antimutagenic activity against cyclophosphamide-induced mutagenicity in Albino mouse testes assessed as RNA level per gram of tissue at 10 mg/kg administered intragastrically for 1 week; format: functional, Testis
Mus musculus [33] = experiment: Antimutagenic activity in mouse brain assessed as peroxidase activity per microgram of tissue at 10 mg/kg administered intragastrically for 1 week; format: functional
Mus musculus [34] = experiment: Antimutagenic activity in mouse brain assessed as protein level per gram of tissue at 10 mg/kg administered intragastrically for 1 week; format: functional
Mus musculus [35] = experiment: Antimutagenic activity against cyclophosphamide-induced mutagenicity in Albino mouse brain assessed as RNA level per gram of tissue at 10 mg/kg administered intragastrically for 1 week; format: functional
Mus musculus [36] = experiment: Antimutagenic activity in mouse liver assessed as protein level per gram of tissue at 10 mg/kg administered intragastrically for 1 week; format: functional
Mus musculus [37] = experiment: Antimutagenic activity in Albino mouse kidney assessed as DNA level per gram of tissue at 10 mg/kg administered intragastrically for 1 week; format: functional
Mus musculus [38] = experiment: Antimutagenic activity in mouse kidney assessed as protein level per gram of tissue at 10 mg/kg administered intragastrically for 1 week; format: functional
Mus musculus [39] = experiment: Antimutagenic activity against cyclophosphamide-induced mutagenicity in mouse brain assessed as cholinesterase activity per microgram of tissue at 10 mg/kg administered intragastrically for 1 week; format: functional
Mus musculus [40] = experiment: Antimutagenic activity in Albino mouse brain assessed as DNA level per gram of tissue at 10 mg/kg administered intragastrically for 1 week; format: functional
Mus musculus [41] = experiment: Antimutagenic activity in Albino mouse testes assessed as DNA level per gram of tissue at 10 mg/kg administered intragastrically for 1 week; format: functional, Testis
Mus musculus [42] = experiment: Antimutagenic activity against cyclophosphamide-induced mutagenicity in Albino mouse kidney assessed as RNA level per gram of tissue at 10 mg/kg administered intragastrically for 1 week; format: functional
Mus musculus [43] = experiment: Antimutagenic activity against cyclophosphamide-induced mutagenicity in Albino mouse kidney assessed as DNA level per gram of tissue at 10 mg/kg administered intragastrically for 1 week; format: functional
Mus musculus [44] = experiment: Antimutagenic activity against cyclophosphamide-induced mutagenicity in Albino mouse brain assessed as DNA level per gram of tissue at 10 mg/kg administered intragastrically for 1 week; format: functional
Mus musculus [45] = experiment: Antimutagenic activity against cyclophosphamide-induced mutagenicity in mouse brain assessed as peroxidase activity per microgram of tissue at 10 mg/kg administered intragastrically for 1 week; format: functional
Mus musculus [46] = experiment: Antimutagenic activity against cyclophosphamide-induced mutagenicity in mouse kidney assessed as protein level per gram of tissue at 10 mg/kg administered intragastrically for 1 week; format: functional
Mus musculus [47] = experiment: Antimutagenic activity in Albino mouse testes assessed as RNA level per gram of tissue at 10 mg/kg administered intragastrically for 1 week; format: functional, Testis
Mus musculus [48] = experiment: Antimutagenic activity in mouse brain assessed as cholinesterase activity per microgram of tissue at 10 mg/kg administered intragastrically for 1 week; format: functional
Mus musculus [49] = experiment: Antimutagenic activity in Albino mouse liver assessed as RNA level per gram of tissue at 10 mg/kg administered intragastrically for 1 week; format: functional
Mus musculus [50] = experiment: Antimutagenic activity against cyclophosphamide-induced mutagenicity in mouse brain assessed as protein level per gram of tissue at 10 mg/kg administered intragastrically for 1 week; format: functional
Mus musculus [51] = experiment: Antimutagenic activity in Albino mouse kidney assessed as RNA level per gram of tissue at 10 mg/kg administered intragastrically for 1 week; format: functional
Mus musculus [52] = experiment: Antimutagenic against cyclophosphamide-induced mutagenicity in Albino mouse liver assessed as DNA level per gram of tissue at 10 mg/kg administered intragastrically for 1 week; format: functional
Mus musculus [53] = experiment: Antimutagenic activity in Albino mouse brain assessed as RNA level per gram of tissue at 10 mg/kg administered intragastrically for 1 week; format: functional
Mus musculus [54] = experiment: Antimutagenic activity in Albino mouse liver assessed as DNA level per gram of tissue at 10 mg/kg administered intragastrically for 1 week; format: functional
Mus musculus [55] = experiment: Antimutagenic activity against cyclophosphamide-induced mutagenicity in mouse testes assessed as protein level per gram of tissue at 10 mg/kg administered intragastrically for 1 week; format: functional, Testis

COc1ccc2c(c1)c(CCNC(C)=O)c1sc(CC#N)nn12
Activity (Mus musculus [1]): 4.94 g
Activity (Mus musculus [2]): 0.21 mg
Activity (Mus musculus [3]): 2.71 g
Activity (Mus musculus [4]): 2.98 g
Activity (Mus musculus [5]): 0.33 mg
Activity (Mus musculus [6]): 0.25 mg
Activity (Mus musculus [7]): 2.73 U
Activity (Mus musculus [8]): 0.22 mg
Activity (Mus musculus [9]): 1.06 U/min
Activity (Mus musculus [10]): 0.3 mg
Activity (Mus musculus [11]): 28%
Activity (Mus musculus [12]): 1.24 U/min
Activity (Mus musculus [13]): 0.28 mg
Activity (Mus musculus [14]): 9.95 g
Activity (Mus musculus [15]): 0.16 mg
Activity (Mus musculus [16]): 3.3 U
Activity (Mus musculus [17]): 0.21 mg
Activity (Mus musculus [18]): 0.23 mg
Activity (Mus musculus [19]): 0.32 mg
Activity (Mus musculus [20]): 0.27 mg
Activity (Mus musculus [21]): 0.35 mg
Activity (Mus musculus [22]): 0.34 mg
Activity (Mus musculus [23]): 0.19 mg
Activity (Mus musculus [24]): 3.49 g
Activity (Mus musculus [25]): 0.28 mg
Activity (Mus musculus [26]): 7.87 g
Activity (Mus musculus [27]): 0.19 mg

COc1ccc2[nH]cc(CCNC(C)=O)c2c1 [MELATONIN]
Activity (Mus musculus [28]): 0.23 mg
Activity (Mus musculus [29]): 8.42 g
Activity (Mus musculus [30]): 0.28 mg
Activity (Mus musculus [31]): 41%
Activity (Mus musculus [32]): 0.17 mg
Activity (Mus musculus [33]): 3.38 U/min
Activity (Mus musculus [34]): 2.48 g
Activity (Mus musculus [35]): 0.15 mg
Activity (Mus musculus [36]): 8.42 g
Activity (Mus musculus [37]): 0.25 mg
Activity (Mus musculus [38]): 6.39 g
Activity (Mus musculus [39]): 2.63 U
Activity (Mus musculus [40]): 0.32 mg
Activity (Mus musculus [41]): 0.26 mg
Activity (Mus musculus [42]): 0.19 mg
Activity (Mus musculus [43]): 0.24 mg
Activity (Mus musculus [44]): 0.21 mg
Activity (Mus musculus [45]): 2.54 U/min
Activity (Mus musculus [46]): 4.42 g
Activity (Mus musculus [47]): 0.34 mg
Activity (Mus musculus [48]): 3.13 U
Activity (Mus musculus [49]): 0.44 mg
Activity (Mus musculus [50]): 2.37 g
Activity (Mus musculus [51]): 0.38 mg
Activity (Mus musculus [52]): 0.23 mg
Activity (Mus musculus [53]): 0.18 mg
Activity (Mus musculus [54]): 0.26 mg
Activity (Mus musculus [55]): 2.96 g
